In patent US12358892B2, “Metalloenzyme inhibitors for treating cancers, Alzheimer's disease, hemochromatosis, and other disorders” (Miralogx LLC, priority 2020, dated 2025):
“Also recorded” adds a separate entry of the source.

How the values were obtained:
[1] = system: human primary endothelial cells; test: BioMAP proliferation readout, endothelial cells; assay type: cell-based; conditions: 100 μM, 33 μM, 11 μM
From the text: The X-axis lists the quantitative protein-based biomarker readouts measured in each system. The Y-axis represents a log-transformed ratio of the biomarker readouts for the drug-treated sample (n=1) over vehicle controls (n≥6). The grey region around the Y-axis represents the 95% significance envelope generated from historical vehicle controls. Biomarker activities are annotated when two or more consecutive concentrations change in the same direction relative to vehicle controls, are outside of the significance envelope, and have at least one concentration with an effect size >20% (|log 10 ratio|>0.1). Biomarker key activities are described as modulated if these activities increase in some systems, but decrease in others. […] As summarized in Table 2 below, the compound was active with 35 annotated readouts. […]
Human primary cells in BioMAP® systems are used at early passage (passage 4 or earlier) to minimize adaptation to cell culture conditions and preserve physiological signaling responses. […] Test agents prepared in either DMSO (small molecules; final concentration ≤0.1%) or PBS (biologics) are added at the indicated concentrations 1-hr before stimulation, and remain in culture for 24-hrs or as otherwise indicated (48-hrs, MyoF system; 72-hrs, BT system (soluble readouts); 168-hrs, BT system (secreted IgG)). […]

[2] = system: NCI-H1299 NSCLC cell line; test: BioMAP Oncology NSCLC panel (StroNSCLC and VascNSCLC systems); assay type: cell-based, human
From the text: The BioMAP® oncology system used in this Example is a coculture of primary human immune cells with primary tissue cells in the presence of the NSCL cells. In particular, The BioMAP® Oncology NSCLC panel models the interactions between the immune-stromal (fibroblasts) and immune-vascular (endothelial cells) environments in the context of non-small lung cancer (NCI-H1299 NSCLC cell line). The interactions between tumor cells, stimulated immune cells (peripheral blood mononuclear cells [PBMC]), and the host stromal network (human neonatal dermal fibroblasts [HDFn]) are captured in the StroNSCLC system. In parallel, the VascNSCLC system captures the interactions between tumor cells, activated immune cells and the vascular tissue (human umbilical vein endothelial cells [HUVEC]). The biomarkers selected for the BioMAP® Non-small Cell Lung Cancer (NSCLC) panel inform on activities related to inflammation, immune-function, tissue remodeling and metastasis in the context of a host tumor-microenvironment.
A signature BioMAP® profile that is reflective of the changes in protein biomarker readouts within an individual system is generated for each test agent. Biomarker readouts selected for therapeutic and biological relevance are predictive for disease outcomes or specific drug effects, and have been validated using agents with known clinical efficacy. Each readout is measured quantitatively by immune-based receptors, cytokines, chemokines, matrix molecules and enzymes. In total, the 42 biomarker readouts in the NSCLC panel capture the biological changes that occur within the physiological context of each particular BioMAP® system.
The BioMAP® Non-small Cell Lung Cancer (NSCLC) panel allows a focused in vitro evaluation of the impact of an agent in a model system that includes the hierarchical signaling networks that exist between interacting pathways and cells in a disease relevant setting. To represent the changes that are occurring in these complex systems, biomarker readouts with the ability to integrate and distinguish changes in different regulatory networks have been selected.
Data analysis of the results was performed as described in detail above in Example 3.1. Briefly, biomarker activities are annotated when at least one concentration of the test agent is outside of the significance envelope with an effect size >20% compared to the vehicle control (|log 10 ratio|>0.1) and a p-value <0.01. Cytotoxic conditions are noted when total protein levels decrease by more than 50% (log 10 ratio of SRB <−0.3). Biomarker key activities are described as modulated if these activities increase in some systems, but decrease in others.

[3] = 7.4 μM, 22 μM, 67 μM, Angiogenesis related activities
[4] = 7.4 μM, 22 μM, 67 μM, Immune-related activities
[5] = 7.4 μM, 22 μM, 67 μM, Inflammation related activities
[6] = 7.4 μM, 22 μM, 67 μM, Matrix remodeling activities

Which “antiproliferative effect on human primary endothelial cells” value [1] does the source give for C1=NC(c2cncc(C3CCC=N3)c2)CC1 (centres unmarked) [3,5-bis(3,4-dihydro-2H-pyrrol-2-yl)pyridine] here?
Its value is “antiproliferative”.

What about the “Decreased activity: uPA” value [2, 3] of the same molecule?
The value was “decreased and uPA”.

And the “Increased activity: tPA” value [2, 3]?
The value was “increased and tPA”.

What about the “Decreased Activity: sIL-6” value [2, 4] of the same molecule?
Its value is “decreased”.

And the “Decreased activity: sGranB” value [2, 4]?
Its value is “decreased; also recorded: sGranB”.

And the “Decreased activity: sIFNγ” value [2, 4]?
Its value is “decreased; also recorded: SIFNG”.

What about the “Decreased activity: sIL-2” value [2, 4] of the same molecule?
Its value is “decreased”.

And the “Decreased activity: sIL-4” value [2, 4]?
Its value is “decreased; also recorded: SIL-4”.

What about the “Decreased activity: sIL-10” value [2, 4] of the same molecule?
Its value is “decreased”.

What about the “Decreased activity: sIL-13” value [2, 4] of the same molecule?
Its value is “decreased”.

What about the “Decreased activity: sIL-17A” value [2, 4] of the same molecule?
Its value is “decreased; also recorded: SIL-17A”.

What about the “Decreased Activity: sTNFα” value [2, 5] of the same molecule?
Its value is “decreased; also recorded: STNFa”.

What about the “Decreased activity: VCAM-1” value [2, 5] of the same molecule?
Its value is “decreased; also recorded: VCAM-1”.

What about the “Decreased activity: sMDC” value [2, 5] of the same molecule?
Its value is “decreased”.

And the “Increased activity: IP-10” value [2, 5]?
The value was “increased; also recorded: IP-10”.

And the “Increased activity: Collagen III” value [2, 6]?
The value was “increased; also recorded: Col-III”.

What about the “Increased activity: EGFR” value [2, 6] of the same molecule?
Its value is “increased and EGFR”.

And the “Increased activity: HGF” value [2, 6]?
Its value is “increased and HGF”.

And the annotated readouts ([2]; BioMAP Oncology NSCLC Panel)?
The annotated readouts was 21.

And the annotated activities ([2]; StroNSCLC system)?
The annotated activities was 16.

What about the annotated activities ([2]; VascNSCLC system) of the same molecule?
Its annotated activities is “five”.

What about the cytotoxicity ([2]; at 200 μM) of the same molecule?
The cytotoxicity was “cytotoxic”.

What about the “cytotoxicity in the VascNSCLC system” value ([2]; at 200 μM, VascNSCLC system) of the same molecule?
Its value is “detectable cytotoxicity”.
